Experimental data reported in patent US8987213B2, “Peptides that selectively home to heart vasculature and related conjugates and methods” (Sanford-Burnham Medical Research Institute, priority 2004, dated 2015).
“Also recorded” adds a separate entry of the source. Where no end group is shown, it is not given here.

Legend:
endothelin A-receptor = biological target: T1, endothelin A-receptor (Homo sapiens, UniProt P25101); settings: cited from earlier work
T1 construct: host or cells: patients
T1 sequence (P25101 21-427): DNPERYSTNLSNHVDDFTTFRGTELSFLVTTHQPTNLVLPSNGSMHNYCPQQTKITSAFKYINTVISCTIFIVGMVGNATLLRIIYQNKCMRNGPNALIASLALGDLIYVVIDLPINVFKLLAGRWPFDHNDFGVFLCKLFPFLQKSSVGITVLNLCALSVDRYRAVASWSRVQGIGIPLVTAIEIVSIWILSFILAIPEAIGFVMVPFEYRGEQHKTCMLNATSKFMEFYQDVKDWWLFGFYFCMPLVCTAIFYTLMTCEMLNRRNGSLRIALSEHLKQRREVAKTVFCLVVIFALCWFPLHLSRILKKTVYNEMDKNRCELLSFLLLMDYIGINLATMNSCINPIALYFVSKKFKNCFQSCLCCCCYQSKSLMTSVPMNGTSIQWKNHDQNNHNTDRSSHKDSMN

heart endothelia = experiment: Phage localization in tissues by anti-T7 immunostaining, co-injected with fluorescein-conjugated tomato lectin; format: in vivo, mouse; settings: peptide displayed on phage, injected intravenously with tomato lectin
Protocol: Further characterization was performed on the five most efficient homing peptides, as indicated by the fold-selectivity summarized in Table 1, and their putative receptors. These homing peptides were analyzed for the ability to selectively bind heart endothelia in vivo and for specific binding to their putative receptors, which also were analyzed for expression in heart endothelia. Each of the phage-displaying a particular homing peptide was individually injected intravenously into mice with fluorescein-conjugated tomato lectin, a blood vessel marker. […] None of the six phage were detected in tissues other than heart under the same conditions.
Immunohistochemistry was performed as follows. Rat monoclonal anti-mouse CD31 (1:100) was obtained from BD Pharmingen (San Jose, Calif.), and rabbit polyclonal anti-T7 phage (1:500), and chicken anti-mouse CRIP2 IgY (1:100) were obtained from GenWay (San Diego, Calif.). Secondary antibodies, AlexaFluor-488 goat anti-rat IgG (1:1000) and AlexaFluor-594 goat anti-rat or rabbit IgG (1:1000) were obtained from Molecular Probes (Eugene, Oreg.); the secondary antibody GAYFC-AlexaFluor 594 goat anti-IgY Fc (1:250) was obtained from GenWay. Frozen sections were preincubated with blocking buffer (5% normal goat serum and 0.5% BSA in 1×PBS) for one hour, washed three times with PBS, and incubated with the primary antibody of interest overnight at 4° C. After the overnight incubation, secondary antibodies were added and incubated for one hour at room temperature. Slides were washed three times with PBS and mounted in Vectashield Mounting Medium with DAPI (Vector Laboratories; Burlingame, Calif.). Blood vessels were additionally visualized by intravenous injection with Lycopersicon esculentum (tomato) lectin conjugated to fluorescein (100 μg in 200 μl of PBS) purchased from Vector Laboratories.

heart vasculature = experiment: In vivo heart homing of individual phage-displayed peptides after intravenous injection; parameters: species or system mouse; settings: for selective homing to the heart (in words): peptide displayed on T7 phage, intravenous injection into mice
Protocol: The indicated peptides identified from a combined screen for heart endothelial homing were reconstituted in T7 phage and individually administered by intravenous injection into mice. […] The highest specificity (over 300-fold) was recorded for the CRPPR (SEQ ID NO: 1)-displaying phage. (A) CRPPR (SEQ ID NO: 1) phage homing to heart, kidney, brain, muscle and lung. (B) CARPAR (SEQ ID NO: 5) phage homing to heart, kidney, brain, muscle and lung. (C) CKRAVR (SEQ ID NO: 7) phage homing to heart, kidney, brain, muscle and lung. (D) CLIDLHVMC (SEQ ID NO: 10) phage homing to heart, kidney, brain, muscle and lung. (E) CRSTRANPC (SEQ ID NO: 11) phage homing to heart, kidney, brain, muscle and lung. (F) CPKTRRVPC (SEQ ID NO: 12) phage homing to heart, kidney, brain, muscle and lung.
In vivo panning was performed as follows. The ex vivo-selected phage pool (5×10^9 p.f.u.) was intravenously injected into mice through the tail vein and allowed to circulate for ten minutes before mice were carefully perfused through the left ventricle with DMEM in order to remove unbound intravascular phage. The heart and control tissues (brain, kidney, skin and muscle) were excised, and phage recovered as described in Hoffman et al., supra, 2004. Phage recovered from the heart were reinjected into mice, and the cycle was repeated for a total of three rounds. Non-recombinant phage were injected into a separate mouse as a control in each experiment.
Individual phage clones were reconstructed as follows. Oligonucleotides that encoded peptides from selected bait plasmids were synthesized, phosphorylated with T4 polynucleotide kinase (PNK; NEB) at 37° C. for one hour, and annealed at a concentration of 0.08 pmol/μl. The annealed inserts were diluted to 0.04 pmol/μl and ligated into T7Select 415-1 arms (Novagen) with T4 ligase overnight at 16° C. The next day, intact recombinant phage were prepared by mixing the ligation reaction with packaging extracts as described by the manufacturer. Inserts were confirmed by sequencing, and individual clones were amplified for ex vivo and in vivo testing as described in Example I above.

Sigirr/TIR8 = biological target: T2, Sigirr/TIR8 (Mus musculus, UniProt Q9JLZ8); experiment: Phage binding to receptor-transfected 293T cells and peptide competition; parameters: species or system murine; settings: free synthetic peptide 100 μg/ml
T2 construct: Full-length cDNAs were constructed for four of the putative heart homing receptors; expressed in transfected cells; host or cells: 293T cells, pMH6-derived plasmid
T2 sequence (Q9JLZ8 1-409): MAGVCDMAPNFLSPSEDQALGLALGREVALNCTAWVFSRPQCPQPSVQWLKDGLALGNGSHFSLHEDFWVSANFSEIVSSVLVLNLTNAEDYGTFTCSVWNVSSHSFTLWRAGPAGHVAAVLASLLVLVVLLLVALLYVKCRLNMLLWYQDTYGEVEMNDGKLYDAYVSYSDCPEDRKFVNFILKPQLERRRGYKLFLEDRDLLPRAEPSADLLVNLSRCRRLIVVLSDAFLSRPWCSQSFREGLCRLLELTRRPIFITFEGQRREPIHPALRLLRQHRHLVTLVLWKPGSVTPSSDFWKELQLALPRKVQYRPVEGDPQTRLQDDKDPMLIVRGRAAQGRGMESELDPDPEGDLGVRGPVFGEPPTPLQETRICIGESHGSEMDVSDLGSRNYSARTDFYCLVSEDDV
Protocol: (§1) Receptor transfections and phage binding assays were performed as follows. 293T cells were transfected with pMH6-derived plasmids (Roche Diagnostics; Indianapolis, Ind.) encoding HLP/CRIP2, Sigirr/TIR8, MpcII-3-related protein and bc10 using the Fugene transfection reagent (Roche Diagnostics). Briefly, 10 μg of plasmid was mixed with 700 μl of serum-free DMEM and 30 μl of Fugene transfection reagent and incubated for 15 minutes at room temperature before the mixture was added to cells. After forty-eight hours, cells were detached from culture dishes using EDTA and washed once with PBS. Phage displaying CRPPR (SEQ ID NO: 1), CKRAVR (SEQ ID NO: 7), CRSTRANPC (SEQ ID NO: 11) or CPKTRRVPC (SEQ ID NO: 12) and nonrecombinant control phage (1×10^9 p.f.u) were incubated with transfected cells for two hours at 4° C. Unbound phage were removed by five washes with 1% BSA in PBS. Bound phage were rescued by addition of bacteria; binding efficiencies were determined by plaque assay as described above.
(§2) Peptides for competition assays were synthesized at The Burnham Institute peptide facility using Fmoc chemistry in a solid-phase synthesizer prior to purification by HPLC and confirmation of their identity by mass spectrometry. Fluorescein-conjugated peptides were synthesized as described in Wender et al., Proc. Natl. Acad. Sci. USA 97:13003-13008 (2000). Competition assays were performed by addition of 100 μg peptide to the cells and phage, followed by incubation at 4° C. for two hours. After five washes with […], bound phage were rescued and quantitated by plaque assay.

bc10 = biological target: T3, bc10 (Mus musculus, UniProt P62951); experiment: as above; parameters: species or system murine; settings: free synthetic peptide 100 μg/ml
T3 construct: Full-length cDNAs were constructed for four of the putative heart homing receptors; expressed in transfected cells; host or cells: 293T cells, pMH6-derived plasmid
T3 sequence (P62951 1-87): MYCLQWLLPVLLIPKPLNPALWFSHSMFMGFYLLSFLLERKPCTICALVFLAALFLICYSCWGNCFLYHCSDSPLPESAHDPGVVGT
Protocol: as §1, §2

[1] = test system: heart-derived cell suspensions; experiment: Competition of CRPPR-displaying phage binding to heart-derived cell suspensions; format: cell-based, murine; settings: various concentrations of antibody or free peptide
Protocol: CRPPR (SEQ ID NO: 1)-displaying phage were incubated with cell suspensions prepared from the heart; phage binding was measured in the presence and absence of various concentrations of the indicated antibodies or peptides. (A) A chicken anti-CRIP2 antibody blocked SEQ ID NO: 1-displaying phage binding to heart cells; normal IgY was used as the negative control. […] (C) In vivo homing of the CRPPR (SEQ ID NO: 1)-displaying phage to the heart was inhibited by co-injected anti-CRIP2 antibody. Shown are the mean and standard deviation from three separate experiments.
The specificity of CRPPR (SEQ ID NO: 1)-phage binding to heart vasculature was assayed using competition assays. […] As negative controls, two other heart-homing peptides had no effect on the CRPPR (SEQ ID NO: 1)-phage binding. Furthermore, co-injected anti-HLP/CRIP2 antibody inhibited in vivo homing of CRPPR (SEQ ID NO: 1)-phage (FIG. 7C).

HLP/CRIP2 = biological target: T4, HLP/CRIP2 (Mus musculus, UniProt Q9DCT8); experiment: Phage binding to receptor-transfected 293T cells and peptide competition; parameters: species or system murine; settings: free synthetic peptide 100 μg/ml
T4 construct: Full-length cDNAs were constructed for four of the putative heart homing receptors; expressed in transfected cells; host or cells: 293T cells, pMH6-derived plasmid
T4 sequence (Q9DCT8 1-208): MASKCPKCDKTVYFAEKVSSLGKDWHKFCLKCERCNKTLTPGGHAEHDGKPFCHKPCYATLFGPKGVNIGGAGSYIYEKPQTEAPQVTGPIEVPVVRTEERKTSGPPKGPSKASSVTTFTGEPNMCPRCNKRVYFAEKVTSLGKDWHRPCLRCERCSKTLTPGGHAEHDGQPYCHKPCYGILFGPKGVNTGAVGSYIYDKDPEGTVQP
Protocol: as §1, §2

MpcII-3-related protein = biological target: T5, MpcII-3-related protein (Mus musculus, UniProt Q9CZB0); experiment: as above; parameters: species or system murine; settings: free synthetic peptide 100 μg/ml
T5 construct: Full-length cDNAs were constructed for four of the putative heart homing receptors; expressed in transfected cells; host or cells: 293T cells, pMH6-derived plasmid
T5 sequence (Q9CZB0 30-169): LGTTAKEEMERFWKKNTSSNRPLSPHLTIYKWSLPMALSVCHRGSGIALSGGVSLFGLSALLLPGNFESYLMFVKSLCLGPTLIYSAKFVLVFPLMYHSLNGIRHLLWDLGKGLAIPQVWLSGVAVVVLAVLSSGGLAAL
Protocol: as §1, §2

Compound	phage detection in tissues other than heart (anti-T7 antibody) (heart endothelia)	phage localization in heart endothelia (anti-T7 antibody) (heart endothelia)	selective homing to the heart (in words) (heart vasculature)	other results
Cc1cc2c(cc1CC(=O)c1sccc1S(=O)(=O)Nc1onc(C)c1Cl)OCO2 [TBC 11251]	–	–	–	clinical effect in patients with moderate to severe congestive heart failure (endothelin A-receptor): significant improvement
CARPAR (displayed on phage)	absent from other tissues	present in heart endothelia	exhibited selective homing to the heart	–
CGNQVDSRC (displayed on T7 phage)	–	–	no significant selective homing	–
CKRAVR [on phage and as free peptide]	absent from other tissues	present in heart endothelia	–	inhibition of CKRAVR-phage binding to Sigirr/TIR8-transfected cells by free peptide (Sigirr/TIR8): inhibited
CLIDLHVMC (displayed on phage) [peptide identified with receptor clone 27; negative control phage]	–	absent from the heart	no specific homing to the heart	phage localization in heart endothelia (anti-T7 antibody) (heart endothelia; listed as SEQ ID NO: 10): absent from the heart and other tissues
CPKRPR (displayed on phage)	–	–	exhibited selective homing to the heart	–
CPKTRRVPC [on phage and as free peptide]	absent from other tissues	present in heart endothelia	–	inhibition of CPKTRRVPC-phage binding to bc10-transfected cells by free peptide (bc10): inhibited
CPSELLLP (displayed on phage)	–	–	did not	–
CRPPR (not fully specified) [tested on T7 phage, as free peptide and fluorescein-conjugated]	absent from other tissues	present in heart endothelia	–	inhibition of CRPPR-displaying phage binding to heart-derived cell suspensions [1]: blocked; also recorded: Dose dependent inhibition; phage homing to the lungs (heart vasculature; peptide displayed on phage, lung tissue): little; inhibition of CRPPR-phage binding to HLP/CRIP2-transfected cells by free peptide (HLP/CRIP2): inhibited
CRSTRANPC [on phage and as free peptide]	absent from other tissues	present in heart endothelia	–	inhibition of CRSTRANPC-phage binding to MpcII-3-related protein-transfected cells by free peptide (MpcII-3-related protein): inhibited
